{"source": "patent US20160000837A1", "about": "“COMPOSITIONS AND METHODS TO ALTER GUT MICROBIAL FERMENTATION USING SULFATE-REDUCING BACTERIA” (WASHINGTON UNIVERSITY, priority 2013, published 2016)", "key": {"D. piger [1]": {"test_system": "D. piger", "assay": "In vitro cross feeding between B. thetaiotaomicron and D. piger (growth in conditioned medium, OD600)", "type": "cell-based, D. piger GOR1", "conditions": "for D. piger growth in medium conditioned by wild-type B. thetaiotaomicron grown on the named carbon substrate: 0.5% carbon substrate in minimal medium, filter-sterilized, lactate 30 mM added, no added sulfate", "method": "A B. thetaiotaomicron strain Δbt0238 that lacks detectable sulfatase activity, and the isogenic wild-type strain were grown in separate cultures containing minimal medium with either a sulfated or non-sulfated carbon substrate (chondroitin sulfate and fructose, respectively).\nExponential phase cultures of B. thetaiotaomicron Δbt0238 and the isogenic wild-type parental strain (Benjdia et al., 2011; kindly provided by Eric Martens, University of Michigan and Olivier Berteau, INRA), grown in Mega Medium 2.0, were inoculated under anaerobic conditions (atmosphere of 5% H2, 20% CO2 and 75% N2) into Balch tubes containing minimal medium supplemented with either 0.5% (w/v) chondroitin sulfate purified from shark cartilage (Sigma) or 0.5% fructose (Sigma) (n=6 tubes/carbon substrate/strain). […] Cultures representing the same strain and carbon substrate were combined and bacteria were pelleted by centrifugation at 3,200×g at 4° C. for ˜20 min. The supernatant was removed and sterilized by passage through a 0.22 μm filter (Fisher). […] The pH of the conditioned medium was adjusted to ˜7.0 using potassium phosphate buffer (pH 7.2). One half of each conditioned medium preparation was used to fill anaerobic Balch tubes (in triplicate) while sulfate (14 mM Na2SO4 and 4.1 mM MgSO4) was added to the remaining conditioned medium prior to filling the tubes (in triplicate)."}, "D. piger [2]": {"test_system": "D. piger", "assay": "COPRO-Seq relative abundance of D. piger in fecal microbiota of gnotobiotic mice fed sulfur-supplemented HF/HS diets", "type": "in vivo", "source_text": "Six groups, each composed of two co-housed mice colonized with the 9-member model human gut microbiota were fed one of 13 diets, all based on the HF/HS diet (0.12% w/w SO4; see Table S2 of Rey et al. PNAS 110: 13582-13587 for diet composition). Each group of mice were started on the HF/HS diet and then given a sequence of four diets with differing sulfur content, each for a 7-day period. The sequence of presentation of the four diets was randomized so that that each diet was eventually fed to two different groups of co-housed animals.\nDNA isolated from feces (and cecal contents) was used to prepare libraries for shotgun Illumina sequencing (McNulty et al., 2011). Briefly, 1 μg of DNA from each sample was fragmented by sonication to an average size of ˜500 bp and subjected to enzymatic blunting and adenine tailing. Customized Illumina adapters containing maximally distant 4 bp or 8 bp barcodes were ligated to the A-tailed DNA. Barcoded libraries were then pooled, subjected to gel electrophoresis for size selection (˜200 bp) and the size-selected DNA amplified by PCR using primers and cycling conditions recommended by Illumina. Amplicons were purified (QIAquick PCR Purification Kit, Qiagen) and sequenced using an Illumina GA-IIx or HiSeq2000 instrument, with libraries loaded onto the flow cell at a concentration of 2.0-2.5 pM. […]"}}}
{"compound": "O=C(CO)[C@@H](O)[C@H](O)[C@H](O)CO", "note": "[fructose]", "values": [{"measurement": "D. piger growth in medium conditioned by wild-type B. thetaiotaomicron grown on the named carbon substrate", "setting": "D. piger [1]", "value": "lack of growth"}]}
{"compound": "CC(O)C(=O)O", "note": "(stereo not shown) [lactate]", "values": [{"measurement": "growth of D. piger with lactate as sole carbon and electron source", "setting": "D. piger [1]; in the absence of sulfate, data not shown", "value": "does not support growth"}]}
{"compound": "O=S(=O)(O)O", "note": "[sulfate]", "values": [{"measurement": "relative abundance of D. piger in the 9-member model human microbiota", "setting": "D. piger [2]; 600-fold change in dietary sulfate (0.001% to 0.6% w/w) in HF/HS-based diets, 7 days each", "value": "did not affect"}, {"measurement": "D. piger growth in fructose-conditioned medium after addition of exogenous sulfate", "setting": "D. piger [1]; 14 mM Na2SO4 and 4.1 mM MgSO4 added", "value": "allowed growth"}]}
{"compound": "chondroitin sulfate", "values": [{"measurement": "D. piger levels in fecal microbiota relative to the HF/HS diet", "setting": "D. piger [2]; HF/HS diet supplemented with 3% chondroitin sulfate, 7 days, 9-member community, p<0.05", "value": "doubled"}, {"measurement": "D. piger growth in medium conditioned by wild-type B. thetaiotaomicron grown on the named carbon substrate", "setting": "D. piger [1]", "value": "Growth of D. piger was only observed"}, {"measurement": "ability of D. piger to metabolize the substrate (growth in medium harvested from B. thetaiotaomicron Δbt0238 cultures)", "setting": "D. piger [1]; chondroitin sulfate-containing minimal medium, lactate added", "value": "not able to metabolize"}]}
